Measured values taken from US11628186B2, “Method and composition for the reduction of viral replication, duration and spread of the COVID-19 and the flu” (priority 2017, dated 2023).

Key:
[1] = test system: patients with hypoxemia with and without lung diseases; assay: Comparison of 5 ml of 5 mM sodium pyruvate saline formulas (Table III); format: in vivo, human; details: 5 ml of 5 mM formula
[2] = test system: patients suffering from severe lung injury or mitochondrial damage or COPD and Hypoxemia; assay: Two months nebulized treatment, lung capacity; format: in vivo, human; details: phosphate and magnesium
Excerpt: Total lung capacity is the volume in the lungs at maximal inflation, the sum of VC and RV. RV is the residual volume of air remaining in the lungs after a maximal exhalation. VC vital capacity is the volume of air breath out after the deepest inhalation. Vital capacity in males is 4.8 liters and in women 3.8 liters. Slow vital capacity (SVC) is the maximum volume of air that can be exhaled slowly after slow maximum inhalation. Three male patients suffering from severe lung injury or mitochondrial damage or COPD and Hypoxemia were treated as described below for two (2) months. […] In fact, dramatic results were observed within two (2) weeks.
[…] The sterile pyruvate 15 solution is placed into a “Pulmo Aid” nebulizer manufactured by DeVilbiss Co., Somerset, Pa. 15501-0635. The sterile pyruvate solution is nebulized by the Pulmo Aid device fitted with a disposable nebulizer and inhaled by the patient. The patient inhales normally from the Pulmo Aid nebulizer until all of the solution has been nebulized and inhaled. This inhalation step typically takes about ten (10) to twenty 20 (20) minutes. The patients were treated with this inhalation therapy periodically. Initially, treatments are about four (4) times a day at about six (6) hour intervals. Treatments were reduced to three (3) times a day at about eight (8) hour intervals after 20 days of therapy. […]

[3] = test system: patients with various cancers and chronic Hypoxemia; assay: Cancer trial pilot study; format: in vivo, human; details: in saline, without calcium, phosphate and magnesium
Description: In eleven patients with various cancers and chronic Hypoxemia, five with lung cancer, including three with non-small cell lung cancer and six with various other cancers, […], which increased SaO2 levels in these patients to enhance the effect of the chemotherapy or radiation, and increased the synthesis of lung surfactants in lung alveoli cells to protect normal cells and help reduce hypoxia in cancer cells. These patients inhaled the formula one to two hours before they were treated with cancer drugs or radiation, given by current standard methods, and continued to inhale the surfactant enhancer formula twice a day for the eight weeks following the chemo therapy treatment. Because these patients are older, they often lack good nutritional eating habits, which effects their immune system. Thus, the patients were also given a proprietary diet high in a unique blend of antioxidants, and nutrients, that they consumed every day before and after chemo or radiation. Good nutrition is always a plus when patients undergo chemo or radiation as sited in numerous published articles. The diet specifically designed for patients with cancer and hypoxemia included calcium pyruvate, dicalcium phosphate and magnesium in their components. […]

[4] = test system: subjects diagnosed with Severe COPD requiring supplemental oxygen; assay: SaO2 pilot study, single inhalation dose, blinded cross-over; format: in vivo, human
Description: A total of five (5) subjects diagnosed with Severe COPD (chronic bronchitis or emphysema) and requiring supplemental oxygen at rest were enrolled in this study at the University of Connecticut. Each subject received a single inhalation dose of either 0.5 mM sodium pyruvate, 5.0 mM sodium pyruvate or 0.9% sodium chloride at each Study Visit. The dose was administered in a blinded cross-over manner at 1 week intervals; such that all subjects received each study compound. Safety and therapeutic efficacy were evaluated by the following measurements: spirometry, expired breath NO level, SaO2, vital signs, and follow-up telephone interviews.
The study was conducted in four visits: a Screening Visit and Study Visits 1-3. The effect of the inhalation of a single dose of sodium pyruvate (0.5 mM and 5.0 mM) or placebo (0.9% sodium chloride) was studied in a double-blind protocol. The primary efficacy outcome objective was the SaO2 levels for all subjects. In addition, COPD subjects were evaluated by lung function (FEV1 and PEF) and expired breath NO levels obtained just prior to and then at 60 minutes and at 3 hours in the second study, following the administration of the particular sodium pyruvate dose.

[5] = Rat studies of irritation or toxicity; format: in vivo; details: 100× concentrations of the 5 mM sodium pyruvate
Excerpt: Ethane and alcohol are lung irritants.

CC(=O)C(=O)[O-].[Na+] [Sodium, sodium pyruvate]
Percentage Increase in FEV-1 over baseline ([1]; inhaled): 4.0% | Percentage Increase in SaO2 over baseline ([1]; inhaled): 0% | Percentage increase of Nitric Oxide over baseline ([1]; inhaled): 18.0%^ | Relief of Congestion and lung tightness 1-10 ([1]; inhaled): 5 | Relief of coughing percentage decrease in four hours ([1]; inhaled): 15% | Overall Rating 1-10 ([1]; 1 most negative, 10 best): 7 | improvement in SaO2 levels ([2]; one of the three patients, end of the two months, without calcium): 3% | improvement in lung functions, especially total lung capacity ([2]; same three patients, formulas without the calcium): no or little improvement in lung functions | raises nitric oxide [3]: 19% | Adverse Events ([4]; 0.5 mM and 5.0 mM single dose): no Adverse Events | Nitric oxide levels increased ([4]; 5 mM inhaled solution): 19% | change in the FEV1 or SaO2 compared to pre inhalation values ([4]; single inhalation of 0.5 mM or 5.0 mM in saline): No significant change | irritation or toxicity [5]: not to have any irritation or toxicity
